The source of these data is paper PMC4302236, “Functional profile of a novel modulator of serotonin, dopamine, and glutamate neurotransmission” (Psychopharmacology, 2014).

For assay [1], the system named is extracellular dopamine. In words: In vivo microdialysis of dopamine and DOPAC in striatum and prefrontal cortex. The conditions noted are these: rats. The method, then:
On the day of the experiment (24–48 h after surgery), the microdialysis probes of each animal were connected via the use of flexible PEEK tubing to a microperfusion pump (Harvard Apparatus, PHD 2000 Holliston, MA). Artificial CSF, composed of 147 mM NaCl, 3 mM KCl, 1.2 mM CaCl2, and 1.2 mM MgCl2 was used to perfuse the probes (1.5 μl/min) beginning at 75 min prior to drug treatment. Baseline dialysate collection was begun for all rats 60 min prior to drug administration (t=−60 min) such that a total of […] were collected prior to drug treatment (t=0). […] A control group of rats (N=9) received only the 0.5 % methylcellulose vehicle solution, delivered orally (p.o.). All drug solutions were delivered in a volume of 1 ml/kg of body weight. Every 20 min for the following 3 h, dialysate was collected from both brain regions of each rat. Dialysates were collected into mini-vials containing 7.5 μl of 0.02 M formic acid using an automated fraction collector Univentor 820, Malta. Tubes containing dialysate samples were then frozen at −80 °C until analyzed by HPLC for levels of dopamine and the dopamine metabolite, DOPAC. […] Coronal sections were prepared of each rat brain to verify the position of the dialysis collection probes. Dopamine and DOPAC concentrations were determined in each sample using HPLC separation and electrochemical detection. An aliquot (20 μl) of each dialysate sample was injected onto the HPLC column by means of a refrigerated microsampler system, consisting of a syringe pump (Gilson, model 402), a multi-column injector (Gilson, model 233 XL), and a temperature regulator (Gilson, model 832). The chromatographic separation was performed on a reverse-phase 150 ×2.1 mm (3 μm) C18 Thermo BDS Hypersil column (Keystone Scientific). […] The mobile phase was run at a flow rate of 0.35 ml/min using an HPLC pump (Shimadzu, model LC-10AD vp). Dopamine and DOPAC were electrochemically detected using a potentiostat (Antec Leyden, model Intro) fitted with a glassy carbon electrode set a +500 mV versus Ag/AgCl (Antec, Leyden). Data were analyzed using Chromatography Data System software (Shimadzu, Class-VP, Japan) using an external standard method to quantify concentrations of dopamine and DOPAC. […] Drug effects were expressed as percentages of basal level (mean±SEM) within the same subject. Statistical analysis was performed using Sigmastat for Windows (SPSS Corporation). Drug effects were compared with baseline and vehicle control using a two-way ANOVA for repeated measurements followed by the Newman–Keuls post hoc test. […] For all tests, the level of statistical significance was set at p<0.05.

Assay [2] concerns the target T1, Dopamine, D4 (Homo sapiens, UniProt P21917).
T1 sequence (P21917 1-419): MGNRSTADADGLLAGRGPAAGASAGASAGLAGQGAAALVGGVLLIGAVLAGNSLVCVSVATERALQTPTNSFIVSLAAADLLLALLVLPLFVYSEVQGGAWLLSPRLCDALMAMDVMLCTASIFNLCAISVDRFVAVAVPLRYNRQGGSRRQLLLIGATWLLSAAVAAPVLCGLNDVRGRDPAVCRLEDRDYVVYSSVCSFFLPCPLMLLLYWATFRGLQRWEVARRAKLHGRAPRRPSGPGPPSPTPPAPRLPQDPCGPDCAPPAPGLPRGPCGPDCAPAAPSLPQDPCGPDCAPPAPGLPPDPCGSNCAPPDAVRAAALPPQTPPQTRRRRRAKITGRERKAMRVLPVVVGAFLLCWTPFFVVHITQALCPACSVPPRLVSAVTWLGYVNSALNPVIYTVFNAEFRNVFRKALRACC
In words: NovaScreen broad selectivity panel at 100 nM, Dopamine D4. The conditions noted are these: average of replicate tubes, read-out: % Inhibition of binding at 100 nM concentration, Dopamine D4. The method, then: Binding activity at a variety of receptor targets, including recombinant human serotonin receptors and rat dopamine D2 and human recombinant dopamine D4 receptors, was measured in vitro using standard radioligand displacement methods (NovaScreen/Caliper/Perkin-Elmer, Hanover, MD), to determine affinity. […] D2 receptor binding was measured at rat recombinant receptors expressed in Chinese hamster ovary (CHO) cells and using ^3H-methylspiperone as a radioligand and in rat striatum using ^3H-sulpiride as a radioligand. […] D4 receptor binding was measured at human recombinant receptor s expressed in CHO cells and using ^3 H-methylspiperone as a radioligand. D1 receptor binding at human recombinant receptor was measured in CHO cells using ^3H-SCH23390 as a radioligand. 5-HT2C receptor binding was measured in pig choroid plexus using ^3 H-methylsergide as a radioligand. Binding to alpha adrenergic receptors in the rat frontal cortex (alpha1A) or rat liver (alpha1B) was measured using ^3H-prazosin as a radioligand. Histamine H1 receptor binding was measured in bovine cere- bellum using ^3H-pyrilamine as a radioligand. […] The affinity constant (Ki) for each receptor subtype or inhibitory concentration 50 (IC50) for inhibition in functional assays was calculated.

Turning to `CN1CCN2c3c(cccc31)[C@@H]1CN(CCCC(=O)c3ccc(F)cc3)CC[C@@H]12` [ITI-007, 1-(4-fluoro-phenyl)-4-((6bR,10aS)-3-methyl-2,3,6b,9,10,10a-hexahydro-1H,7H-pyrido[3′,4′:4,5]pyrrolo[1,2,3-de]quinoxalin-8-yl)-butan-1-one], the “DA efflux in mPFC” value is on record as “significantly increased” in assay [1] (3 mg/kg p.o., p<0.05) and “not statistically significant” in assay [1] (10 mg/kg p.o., trend toward an increase). Further, in assay [2], the inhibition at 0.1 µM was found to be 64.3%.
